# Experimental data as given in US11685726B2, “Pharmaceutical compositions of 6-(2-(2H-tetrazol-5-yl)ethyl)-6-fluorodecahydroisoquinoline-3-carboxylic acid and ester derivatives thereof” (Sea Pharmaceuticals LLC, priority 2020, dated 2023).
# What was measured:
# [1] = Hydrolysis by rat plasma in vitro at 37 degrees C; assay type: in vitro ADME
# [2] = tested on: 6 Hz psychomotor seizure model in mice; assay: 6 Hz psychomotor seizure model in mice; assay type: in vivo, mouse; details: 0.5 hours, SPHA
# Text: Adult male Carworth Farms (CF-1) mice (25-35 g) or young male Sprague-Dawley (SD) rats (100-150 g) were obtained from Charles River Laboratories Inc (Wilmington Mass. USA). CF1 mice were typically used for the 6 Hz psychomotor seizure model (6 Hz model described in the section below) but could also be used for the Maximal electroshock seizure (MES) model if performed in mice (Maximal electroshock seizure model described in the section below). SD rats were typically used for MES model but could also be used for 6 Hz psychomotor model if performed in rats. Animals were allowed free access to food and water, except during testing periods. After delivery from supplier lab to the in vivo pharmacology testing lab, animals were allowed sufficient time to acclimate to housing conditions prior to testing. Animals were housed in plastic cages in rooms with controlled humidity, ventilation, and lighting (12 hours lights on and 12 hours darkness). The animals were housed and fed in a manner consistent with the recommendations in the “Guide for Care and Use of Laboratory Animals” (National Research Council), and in accordance with guidelines set by an Institutional Animal Care and Use Committee (IACUC). Animal experiments were conducted in a manner consistent with Animal Research: Reporting of In Vivo Experiments (ARRIVE) guidelines (UK) and were approved by an IACUC. Test compounds or respective vehicle (placebo) were administered using an optimal fluid volume-to-body fluid ratio. Solutions or suspensions of test compounds, reference compounds or vehicles were administered to mice or rats in a volume of 0.01 mL/g body weight (mice) or 0.004 mL/g body weight (rats) by subcutaneous (s.c.) injection, intraperitoneal (i.p.) injection or by oral gavage (p.o.) unless otherwise indicated. Reference drug Levetiracetam or vehicle was administered by intraperitoneal (i.p.) injection.
# Mice are given a topical anesthetic on the cornea of each eye prior to placement of corneal electrodes. 6 Hz psychomotor seizures were induced in mice (usually 8 animals per group) using electrical stimulation via corneal electrodes (6 Hz, 0.2 millisecond rectangular pulse, 3 second duration at 22 mA using a Grass 48 stimulator instrument as described in Barton M E et al 2001. Epilepsy Res 47:217-227). Prior to placement of corneal electrodes for electrical stimulation 0.5% tetracaine in saline (Sigma) drops were applied to each eye. Seizures and behaviors that arise from the electrical stimulus in the 6 Hz model include a minor clonic seizure phase followed by stereotyped automatistic behaviors including stun, forelimb clonus, twitching of the vibrissae and Straub-tail. […] Animals not presenting any of these behaviors were considered “protected” from seizures. This serves as a screen for in vivo pharmacological activity of test articles or reference anti-epilepsy drugs and defines anti-seizure activity as shown in several publications [Barton M E et al. 2001. Epilepsy Res. 47:217-227; Barton M E et al. 2003 Epilepsy Res. 56:17-26; Brown W C et al. 1953. J Pharmacol Exp Ther 107:273-283. Metcalf C S et al. 2017a. Epilepsia 58:484-493.; Metcalf C S et al. 2017c. Epilepsia 58:239-246.
# Unless otherwise indicated pretreatment times of mice or rats were typically 0.5 hours for respective vehicle, Compounds 1, 3, 4, 6 or other compounds administered by subcutaneous or intraperitoneal route (unless other times indicated). A pretreatment time of 1 hour was used for Compounds 3, 4, 6 or other compounds administered by oral route unless other times indicated. Test compounds or respective vehicles were tested in some cases at other pretreatment times as indicated. A median effective dose (ED50) and 95% confidence interval (CI) were calculated using a Prism (Graphpad software). […]
# [3] = tested on: Maximal Electroshock Seizure (MES) model in rats; assay: Maximal Electroshock Seizure (MES) model in rats; assay type: in vivo
# Text: Adult male Carworth Farms (CF-1) mice (25-35 g) or young male Sprague-Dawley (SD) rats (100-150 g) were obtained from Charles River Laboratories Inc (Wilmington Mass. USA). CF1 mice were typically used for the 6 Hz psychomotor seizure model (6 Hz model described in the section below) but could also be used for the Maximal electroshock seizure (MES) model if performed in mice (Maximal electroshock seizure model described in the section below). SD rats were typically used for MES model but could also be used for 6 Hz psychomotor model if performed in rats. Animals were allowed free access to food and water, except during testing periods. After delivery from supplier lab to the in vivo pharmacology testing lab, animals were allowed sufficient time to acclimate to housing conditions prior to testing. Animals were housed in plastic cages in rooms with controlled humidity, ventilation, and lighting (12 hours lights on and 12 hours darkness). The animals were housed and fed in a manner consistent with the recommendations in the “Guide for Care and Use of Laboratory Animals” (National Research Council), and in accordance with guidelines set by an Institutional Animal Care and Use Committee (IACUC). Animal experiments were conducted in a manner consistent with Animal Research: Reporting of In Vivo Experiments (ARRIVE) guidelines (UK) and were approved by an IACUC. […]
Structure (SMILES),hydrolysis to Compound 1 by rat plasma in vitro ([1]; incubated at 37 degrees C),hydrolysis by rat plasma after esterase inhibitor pretreatment ([1]; plasma pretreated 37 degrees C 5 min with 10 micromolar methyl arachidonoyl fluoro phosphonate),6 Hz Test Results (# mice protected from seizure/# mice tested) ([2]; 0.3 mg/kg s.c.),6 Hz Test Results (# mice protected from seizure/# mice tested) ([2]; 0.6 mg/kg s.c.),6 Hz Test Results (# mice protected from seizure/# mice tested) ([2]; 1 mg/kg s.c.),6 Hz Test Results (# mice protected from seizure/# mice tested) ([2]; 3 mg/kg s.c.),6 Hz Test Results (# mice protected from seizure/# mice tested) ([2]; 6 mg/kg s.c.),6 Hz Test Results (# mice protected from seizure/# mice tested) ([2]; 10 mg/kg s.c.),"MES Test Results (# rats protected from seizure/# rats tested) ([3]; 6 mg/kg S.C., 0.5 hours before corneal stimulus, SPHA formulation)","tolerability of treatment in MES study ([3]; rats, single acute systemic administration)"
"O=C(O)[C@@H]1C[C@H]2CC(F)(CCc3nnn[nH]3)CC[C@H]2CN1 (stereo in doubt) [Compound 2, (3S,4aS,6R,8aR)-6-fluoro-6-[2-(1H-1,2,3,4-tetrazol-5-yl)ethyl]-decahydroisoquinoline-3-carboxylic acid]",within minutes,blocked,,,,,,,,
"O=C(O)[C@@H]1C[C@H]2C[C@@](F)(CCc3nnn[nH]3)CC[C@H]2CN1 [Compound 1, (3S,4aS,6S,8aR)-6-fluoro-6-[2-(1H-1,2,3,4-tetrazol-5-yl)ethyl]-decahydroisoquinoline-3-carboxylic acid]",,,1/8,3/8,3/8,5/8,7/8,8/8,6/6,well tolerated
